Measured values as given in patent US6943147B2, “Cancer treatment using proANP peptides” (University of South Florida, priority 2003, dated 2005).

Columns and labels:
[1] = system: pancreatic adenocarcinoma cells; assay: DNA synthesis by bromodeoxyuridine (BrdU) incorporation into adenocarcinoma cells; format: cell-based, human; conditions: 1 μM, 24 hours
Source text: To investigate whether these peptide hormones were inhibiting DNA synthesis and cell proliferation bromodeoxyuridine (BrdU) incorporation into the adenocarcinoma cells was utilized. BrdU was from BD Bioscience, San Jose, Calif. DNA synthesis and doubling of the genome take place during the synthetic or S phase. BrdU is a thymidine analog incorporated into nuclear DNA during the S phase of the cell cycle. Immunohistochemical methods use BrdU also as a marker of cell proliferation in cancer biology studies. After 24 hours in culture with 1 μM of LANP, vessel dilator, kaliuretic peptide, or ANP, respectively, or with no peptide hormone (i.e., control), BrdU in a final concentration of 10 μM in the cell culture medium was added for 45 minutes—which is time in which the cells are in the logarithmic phase of cell proliferation. For immunohistochemistry, a BrdU in situ detection kit from Becton Dickinson Immunocytochemistry Systems, San Jose, Calif., was utilized.
After the 45 minutes with BrdU, the adenocarcinoma cells were washed three times in phosphate buffered saline (PBS), five minutes each. This was followed by placing the cells in a −80° C. freezer for five minutes and then 100% methanol was added at 5° C. in order for the cells to become permeable enabling the anti-BrdU antibody to reach the nucleus of the cell. The cells were then washed again in PBS before 100 μl of biotinylated anti-BrdU antibody was added. The coverslips were then incubated in a humidified chamber for one hour. After this incubation, the slides were rinsed in PBS, two minutes each. Then streptavidin-horseradish peroxidase (HRP) was added to each coverslip. The cells were then incubated for 30 minutes. Streptavidin-HRP binds to biotinylated anti-BrdU and HRP is used with addition of diaminobenzidine (DAB) substrate system to visualize BrdU incorporation into the adénocarcinoma cells. After the 30 minute incubation with streptavidin-HRP, the coverslips were rinsed in PBS, two minutes each time, before adding the DAB substrate solution, which contains DAB chromagen and DAB buffer, for five minutes. The coverslips were then rinsed in water, two minutes each time before counterstaining the slides with hematoxylin for 60 seconds followed by a thorough rinsing in water for five minutes. The incorporation of the BrdU stain into the nucleus was then counted using a Nikon Inverted Diaphot-TMD Microscope (Tokyo, Japan). The number of stained nuclei was compared in the four peptide hormone groups to the positive control group. The negative control for these studies was provided by Becton Dickinson Immunocytochemistry Systems.
BrdU has an advantage over ^3H-thymidine incorporation in that it takes less time and provides high resolution.
Cyclic GMP and prostaglandin E2 are the two known mediators of all of the previously described biologic effects of these four peptide hormones. All four of these peptide hormones-induced vasodilation of vasculature is mediated by increased cyclic GMP concentrations via enhancing guanylate cyclase activity. […] ANPs effects in the kidney are thought to be mediated by cyclic GMP. Each of these peptide hormones increase cyclic GMP while simultaneously dilating vasculature. 8 bromo-cyclic GMP reproduces these vasodilatory effects. For the present investigation of the mechanism of these peptide hormones' ability to inhibit DNA synthesis in cancer cells, 8-bromoguanosine 3′,5′-cyclic monophosphate (i.e., 8-bromo cyclic GMP, Sigma-Aldrich Co., St. Louis, Mo.) was utilized. 8-bromo cyclic GMP is a cell-permeable analog of cyclic GMP. 8-bromo cyclic GMP effects on DNA synthesis were investigated in dose-response curves with cyclic GMP concentrations ranging from 100 pM to 5 mM.
Prostaglandin E2, i.e., (5Z, 11α, 13E, 15S)-11, 15-dihydro-9-oxo-prosta-5, 13-dien-I-oic acid was purchased from Sigma-Aldrich, St. Louis, Mo. […]

[2] = system: human pancreatic adenocarcinomas; assay: Growth of human pancreatic adenocarcinomas in vivo in athymic mice; parameters: species or system NCr athymic nude mice
Source text: The animals used in the whole animal studies were NCr athymic nude mice. The NCr athymic outbred stock is the standard athymic model for National Cancer Institute (NCI) studies as well as many pharmaceutical and institutional oncology screening programs. The nude gene in homozygous (nu/nu) mice causes the lack of fur and an abnormal thymus. The deficiency in T cell function allows athymic mice to accept and grow xenografts as well as allograftsof normal and malignant tissues. Heterozygous (nu/+) animals carry the recessive nude gene on one chromosome only and therefore have a normal thymus triggered immune system. NCr-nu breeder stock was obtained from the NCI in 1993 after several years of random breeding. It was hysterectomy derived to achieve germfree status prior to its introduction into IBU colonies. This outbred stock has both BALB/c inbred and NIH(S) outbred stock in its genetic background. The homozygotes (nu/nu) used for the proposed investigations are albino animals with the model number of NCRNU-M from […] also being called Tac:Cr:(NCr)-Foxn1^nu: Six week old nude mice were utilized for these studies as they weight approximately 20 grams at this time period and the subcutaneous pumps used to infuse the respective four atrial natriuretic peptides were designed for 20 gram and larger mice. These mice accept malignant tissues. After one week of accliminization to their new surroundings, the mice have 1×10^6 of the adenocarcinoma cells placed under the skin on their backs. […] Tumor volume was calculated by the formula V (volume)=a×b^2/2 where “a” is the largest superficial diameter and b is the smallest superficial diameter. […] When the tumors first became palpable their volume was recorded and then an osmotic pump (Alzet Model 1002) containing either 0.9% saline (control infusion) or one of the respective peptide hormones in 0.9% saline was placed subcutaneously between the shoulder blades under anesthesia (pentobarbital 40 mg/kg body wt intraperitoneally). […]

vessel dilator: a.a. 31-67 of the 126 a.a. ANP prohormone; peptide hormone from Peninsula Laboratories
inhibition of DNA synthesis [1]: 91%
side effects ([2]; 139 ng/min/kg infusion in whole animals): no side effects
growth of the human adenocarcinomas ([2]; 139 ng/min/kg of body weight, subcutaneous infusion pump, 14 days, n=14): stopped the growth
change in tumor volume during the two weeks of infusion ([2]; 139 ng/min/kg, 14 days, saline-treated increased 100 mm^3): no increase in volume
